According to paper PMC10527105, “Chirality Matters: Fine-Tuning of Novel Monoamine Reuptake Inhibitors Selectivity through Manipulation of Stereochemistry” (Biomolecules, 2023):
“Also recorded” adds a separate entry of the source. Where two headings read alike, the source gives them in different places.

Columns and labels:
[1] = Compound brain levels after intraperitoneal injection; format: in vivo; conditions: single intraperitoneal injection, 10 mg/kg, Sprague–Dawley rats
Method: Compound brain levels. For an in-depth description of the brain and blood at 7h, we refer to the protocol of Evotec (France, Study No. DMPK-2020-494) in the supplementary information file.

[2] = target: T1, DAT-expressing SK-N-MC cells (Homo sapiens, UniProt Q01959); assay: Superfusion experiments: [3H]MPP+ efflux and d-amphetamine interaction; format: cell-based; conditions: for action on the dopamine-releasing effect of D-amphetamine: 3 µM D-amphetamine; for efflux-increasing (releasing) action on DAT-expressing, substrate-loaded superfused cells: compound alone
T1 construct: expressed in transfected cells; host or cells: SK-N-MC (human neuroblastoma)

[3] = target: T2, noradrenaline transporter/SLC6A2 (NET) (Homo sapiens, UniProt P23975); assay: Cellular uptake experiments: [3H]-noradrenaline reuptake inhibition in transporter-expressing HEK293 cells; format: cell-based
T2 construct: expressed in transfected cells; host or cells: HEK293
Procedure, shortened: (§1)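 Stably transfected HEK293 cells preincubated 5 min with compound, then 1 µM [3H]-substrate for 2.5 min (SERT: 5 min) at 25 °C, pH 7.1 buffer; uptake counted by scintillation. Nonspecific uptake defined with 10 µM mazindol (DAT, NET) or 10 µM clomipramine (SERT).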

rat cortical neurons = assay: Neurite outgrowth assay (Cyprotex); format: cell-based; conditions: for IC50: Rattus norvegicus, Cortical neurone, 72 h; for window between neurite outgrowth effect concentration and active concentration: effect at 100 µM compared to the active concentration; for effect on valid neuron count, mean neurite average length and neurite total length per neuron: only at 100 µM (top concentration tested); for effect on neurite outgrowth in relation to effect on cell viability: rat cortical neurons; for cell-toxic effects: up to a concentration of 50 µM
Method: Neurite outgrowth assay. […] were carried out by Cyprotex (an Evotec Company, Toulouse, France), Study No. CYP2052-R1. For an in-depth description, please refer to the report in the supporting information files. Cryo-preserved rat cortical neurons (QBM Cell Science, R-Cx-500) were quickly thawed and slowly diluted with neurobasal medium supplemented with L-glutamine (Invitrogen, Cat. No. 25030-081), penicillin-streptomycin (Invitrogen, Cat. No. 15140-122), and B27 (NB/B27 medium, Invitrogen, Cat. No. 17504-044). After a gentle centrifugation step, the neurons were resuspended in NB/B27 medium at a density of 4.0 × 10^6 cells/mL. One hour prior to treatment, the neurons were plated in 384-well plates (Corning 354663) pre-coated with a laminin solution (Sigma L2020 1 mg/mL) at a density of 10,000 cells per well. After treatment with test articles and control compounds, the neurons were maintained in a humidified environment at 37 °C with 5% CO2 for 72 h. At the end of the treatment period, the neurons were fixed for 1 h with a 3.7% formaldehyde solution (Acros Organics, 41073-0010). The neurons were washed with phosphate buffered saline (PBS) (SH30264.02) and permeabilized for 10 min with a 0.5% solution of Triton X-100 (Millipore Sigma, X100). After another wash step, the neurons were stained for one hour with Hoechst 33342 (ThermoFisher Scientific, H3570) and the anti-beta III tubulin antibody, Alexa Fluor® 488 conjugate (Millipore Sigma AB15708A4), diluted in a blocking buffer solution (Thermo Scientific, 37525). Upon completion of the staining step, the neurons were washed again, and the plates were sealed in preparation for the imaging process. The neurons were evaluated for neurite outgrowth and cell health using the high-content imaging platform, ArrayScan VTi (Thermo Scientific ArrayScan VTi), with an optimized neuronal profiling bio-application.
This assay assessed cell health and neurite outgrowth utilizing a neuronal profiling bio-application applied to images obtained on an ArrayScan VTi. Valid neuron count, mean neurite average length, and neurite total length per neuron were determined and reported. Raw data were normalized to the vehicle control and reported as a normalized% response. Dose response graphs were generated with GraphPad Prism using a sigmoidal dose-response (variable slope) algorithm.

human SERT = target: T3, human SERT (Homo sapiens, UniProt P31645); assay: Radioligand binding assay, [3H]imipramine, CHO cells (Eurofins Cerep); conditions: human SERT expressed in CHO cells; read-out: Ki, binding sites of the SERT (against [3H]imipramine)
T3 construct: host or cells: CHO
Method: (§2) Binding experiments. Binding affinity to the human DAT, SERT, and NET stable proteins expressed in CHO cells was evaluated in in vitro radioligand binding assays. Non-specific binding was determined using [^3H]BTCP, [^3H]imipramine, and ^[3H] nisoxetine for hDAT, hSERT, and hNET, respectively. The IC50 values were calculated by non-linear regression analysis of the competition curves generated from the mean replicate values. The Ki values were calculated using the Cheng–Prusoff equation (Ki = IC50/(1 + […])). Binding assays were carried out by Eurofins (Cerep SA, Celle l’Evescault, France), Study No. 100053935. For an in-depth description, please refer to the report in the supporting information file.

human DAT = target: T4, human DAT (Homo sapiens, UniProt Q01959); assay: Radioligand binding assay, [3H]BTCP, CHO cells (Eurofins Cerep)
T4 construct: host or cells: CHO
Method: as §2

[4] = target: T5, human dopamine transporter/SLC6A3 (DAT) (Homo sapiens, UniProt Q01959); assay: Cellular uptake experiments: [3H]-dopamine reuptake inhibition in transporter-expressing HEK293 cells; format: cell-based; conditions: Reuptake Inhibition (IC50 ± SE, µM) DAT, cells stably expressing DAT; [3H]-dopamine 1 µM; screening cut-off 50 µM
T5 construct: expressed in transfected cells; host or cells: HEK293
Procedure, shortened: as §1

[5] = read-out: Mean Neurite Avg. Length IC50, rat cortical neurons, 72 h
[6] = read-out: Neurite Total Length per Neuron IC50, rat cortical neurons, 72 h
[7] = read-out: Valid Neuron Count IC50, rat cortical neurons, 72 h

T1 sequence (Q01959 whole entry, the tested form may be a part): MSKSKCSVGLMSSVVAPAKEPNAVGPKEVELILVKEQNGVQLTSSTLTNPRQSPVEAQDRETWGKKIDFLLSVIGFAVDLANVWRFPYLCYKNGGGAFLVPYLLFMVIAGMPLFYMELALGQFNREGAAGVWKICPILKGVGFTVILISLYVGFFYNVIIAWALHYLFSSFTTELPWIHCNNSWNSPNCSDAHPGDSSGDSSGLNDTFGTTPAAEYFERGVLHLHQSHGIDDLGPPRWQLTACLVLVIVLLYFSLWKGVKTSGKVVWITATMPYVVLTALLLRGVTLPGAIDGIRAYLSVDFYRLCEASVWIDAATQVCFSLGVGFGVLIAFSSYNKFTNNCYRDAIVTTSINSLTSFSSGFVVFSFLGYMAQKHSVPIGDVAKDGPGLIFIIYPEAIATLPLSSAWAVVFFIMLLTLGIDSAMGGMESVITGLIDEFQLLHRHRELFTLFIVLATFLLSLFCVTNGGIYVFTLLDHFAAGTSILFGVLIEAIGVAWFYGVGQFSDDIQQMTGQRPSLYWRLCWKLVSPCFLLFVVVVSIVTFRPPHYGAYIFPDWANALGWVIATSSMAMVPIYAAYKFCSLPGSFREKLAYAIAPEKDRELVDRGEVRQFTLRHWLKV
T4 sequence (Q01959 whole entry): as the sequence (Q01959 whole entry, the tested form may be a part) above
T5 sequence (Q01959 whole entry): as the sequence (Q01959 whole entry, the tested form may be a part) above
T2 sequence (P23975 whole entry): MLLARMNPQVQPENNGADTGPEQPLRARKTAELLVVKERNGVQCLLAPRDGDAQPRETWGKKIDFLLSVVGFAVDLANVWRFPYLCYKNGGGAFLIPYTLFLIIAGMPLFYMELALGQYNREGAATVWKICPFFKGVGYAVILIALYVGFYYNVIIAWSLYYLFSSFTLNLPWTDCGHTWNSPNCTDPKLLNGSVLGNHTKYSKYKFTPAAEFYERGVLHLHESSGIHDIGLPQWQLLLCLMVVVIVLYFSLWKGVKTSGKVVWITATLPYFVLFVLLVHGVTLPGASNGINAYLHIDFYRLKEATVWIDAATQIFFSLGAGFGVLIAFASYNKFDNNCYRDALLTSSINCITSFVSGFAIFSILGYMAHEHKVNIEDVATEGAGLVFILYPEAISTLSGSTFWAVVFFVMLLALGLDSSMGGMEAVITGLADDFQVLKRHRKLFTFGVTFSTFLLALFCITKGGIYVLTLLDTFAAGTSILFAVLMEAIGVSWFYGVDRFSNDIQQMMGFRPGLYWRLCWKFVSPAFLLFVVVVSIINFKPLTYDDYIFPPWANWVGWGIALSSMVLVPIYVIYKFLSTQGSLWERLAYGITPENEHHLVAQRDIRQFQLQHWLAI
T3 sequence (P31645 whole entry): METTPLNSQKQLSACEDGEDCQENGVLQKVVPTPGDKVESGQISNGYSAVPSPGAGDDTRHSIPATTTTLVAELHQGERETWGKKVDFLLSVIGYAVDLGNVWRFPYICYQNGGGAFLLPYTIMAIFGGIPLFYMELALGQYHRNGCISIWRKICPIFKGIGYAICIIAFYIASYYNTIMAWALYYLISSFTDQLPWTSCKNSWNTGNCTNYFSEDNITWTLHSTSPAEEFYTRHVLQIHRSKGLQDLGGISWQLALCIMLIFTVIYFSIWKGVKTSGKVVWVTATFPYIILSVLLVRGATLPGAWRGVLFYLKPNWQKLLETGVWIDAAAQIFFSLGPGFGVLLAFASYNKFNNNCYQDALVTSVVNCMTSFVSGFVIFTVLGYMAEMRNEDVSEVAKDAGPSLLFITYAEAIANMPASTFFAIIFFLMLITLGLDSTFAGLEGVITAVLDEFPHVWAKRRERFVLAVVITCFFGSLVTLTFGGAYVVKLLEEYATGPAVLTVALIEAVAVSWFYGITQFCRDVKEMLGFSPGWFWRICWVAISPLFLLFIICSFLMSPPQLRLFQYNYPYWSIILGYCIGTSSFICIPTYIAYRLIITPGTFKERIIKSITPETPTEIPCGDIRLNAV

SMILES: [O-][S@@+](Cc1cccs1)[C@@H](c1ccccc1)c1cccc(Br)c1 [Compound 7h, (S,S)-2-((((3-bromophenyl)(phenyl)methyl)sulfinyl)methyl)thiophene]
- Cmax ([1]; rat, brain, ip): 478 ng/g
- half-life ([1]; rat, brain, ip): 180 min
- Tmax ([1]; rat, brain, ip, read-out: median Tmax in the brain): 1 h
- detectable in brain post-administration [1]: up to 10 h
- action on the dopamine-releasing effect of D-amphetamine [2]: potent inhibiting action
- efflux-increasing (releasing) action on DAT-expressing, substrate-loaded superfused cells [2]: absence of an efflux-increasing action; also recorded: lack of amphetamine-like effects
- IC50 [3]: 16.4 ± 0.6 µM
- IC50 (rat cortical neurons; [5]): 65.8 µM
- IC50 (rat cortical neurons; [6]): 59.8 µM
- IC50 (rat cortical neurons; [7]): 92.2 µM
- window between neurite outgrowth effect concentration and active concentration (rat cortical neurons): more than 100 fold
- effect on valid neuron count, mean neurite average length and neurite total length per neuron (rat cortical neurons): significant decreases
- effect on neurite outgrowth in relation to effect on cell viability (rat cortical neurons): not independent of their effect on cell viability
- cell-toxic effects (rat cortical neurons): absence of cell-toxic effects
- Ki (human SERT): > 10 µM
- Ki (human DAT): 13 nM
- IC50 [4]: 0.48 ± 0.11 µM

SMILES: [O-][S@+](Cc1cccs1)[C@H](c1ccccc1)c1cccc(Br)c1 [Compound 8h, (R,R)-2-((((3-bromophenyl)(phenyl)methyl)sulfinyl)methyl)thiophene]
- action on the dopamine-releasing effect of D-amphetamine [2]: potent inhibiting action
- efflux-increasing (releasing) action on DAT-expressing, substrate-loaded superfused cells [2]: absence of an efflux-increasing action; also recorded: lack of amphetamine-like effects
- IC50 [3]: > 50 µM
- IC50 (rat cortical neurons; [5]): 75.2 µM
- IC50 (rat cortical neurons; [6]): 72.2 µM
- IC50 (rat cortical neurons; [7]): 94.6 µM
- window between neurite outgrowth effect concentration and active concentration (rat cortical neurons): more than 100 fold
- effect on valid neuron count, mean neurite average length and neurite total length per neuron (rat cortical neurons): significant decreases
- effect on neurite outgrowth in relation to effect on cell viability (rat cortical neurons): not independent of their effect on cell viability
- cell-toxic effects (rat cortical neurons): absence of cell-toxic effects
- Ki (human SERT): > 10 µM
- Ki (human DAT): 35 nM
- IC50 [4]: 0.3 ± 0.03 µM
